Calls of active or inactive are those of the source. The calls are words filed in the database; no cut-off is given here.

This passage reports Activity results from ChEMBL document CHEMBL1139030, “Inhibition of jack bean urease by organobismuth compounds” (Bioorg Med Chem Lett, 2006).

The assay deals with Urease (Canavalia ensiformis) (UniProt P07374). The assay is described as follows: Inhibitory activity against jack bean urease.
Chain of UniProt P07374 (P07374 whole entry, looked up): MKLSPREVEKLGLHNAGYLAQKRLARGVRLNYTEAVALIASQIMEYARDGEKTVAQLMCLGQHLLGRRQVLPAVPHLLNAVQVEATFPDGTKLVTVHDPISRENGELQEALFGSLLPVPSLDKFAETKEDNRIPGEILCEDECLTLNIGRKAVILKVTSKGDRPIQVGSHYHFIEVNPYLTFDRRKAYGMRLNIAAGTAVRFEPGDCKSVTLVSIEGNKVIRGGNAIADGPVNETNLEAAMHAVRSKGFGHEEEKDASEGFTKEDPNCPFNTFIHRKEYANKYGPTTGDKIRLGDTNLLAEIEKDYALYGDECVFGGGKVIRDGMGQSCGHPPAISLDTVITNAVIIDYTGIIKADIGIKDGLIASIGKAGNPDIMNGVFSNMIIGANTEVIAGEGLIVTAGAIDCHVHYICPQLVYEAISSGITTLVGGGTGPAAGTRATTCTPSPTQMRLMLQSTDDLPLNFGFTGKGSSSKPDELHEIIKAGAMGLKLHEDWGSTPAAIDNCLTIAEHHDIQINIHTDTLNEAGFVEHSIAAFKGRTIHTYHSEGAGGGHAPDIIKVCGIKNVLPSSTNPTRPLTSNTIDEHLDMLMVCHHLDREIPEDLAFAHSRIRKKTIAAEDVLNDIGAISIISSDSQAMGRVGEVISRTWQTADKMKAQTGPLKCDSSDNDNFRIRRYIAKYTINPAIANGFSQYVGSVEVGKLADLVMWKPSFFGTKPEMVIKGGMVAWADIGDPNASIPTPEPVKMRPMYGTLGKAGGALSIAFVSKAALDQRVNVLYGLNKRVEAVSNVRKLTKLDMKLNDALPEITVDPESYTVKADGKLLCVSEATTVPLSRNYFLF
For “4-[bis(4-cyanophenyl)bismuthanyl]benzonitrile”, the outcome was Active.

Regarding “4-[bis(4-cyanophenyl)difluorobismuthanyl]benzonitrile”, the result was Active.

Turning to TRIPHENYLBISMUTHINE, the outcome was Active.

As for [sequence], the outcome was Active.

Take “difluorotris(2,4,6-trimethylphenyl)bismuthane”: the result was Active.

As to difluorotris(4-fluorophenyl)bismuthane, the outcome was Active.

For the substance difluorotris(4-methylphenyl)bismuthane, the outcome was Active.

On to “difluorotris[4-(trifluoromethyl)phenyl]bismuthane”, for which the outcome was Active.

Turning to “ethyl 4-{bis[4-(ethoxycarbonyl)phenyl]bismuthanyl}benzoate”, the outcome was Active.

As for “ethyl 4-{bis[4-(ethoxycarbonyl)phenyl]difluorobismuthanyl}benzoate”, the result was Active.

Consider trip-tolylbismuthine, for which the result was Active.

With “tris(4-(trifluoromethyl)phenyl)bismuthine”, the result was Active.

For tris(4-fluorophenyl)bismuth dichloride, the result was Active.

On to tris(4-fluorophenyl)bismuthine, for which the result was Active.
